Target: T1, OR2AT4 (human olfactory receptor, endogenously expressed in HaCaT cells) (Homo sapiens, UniProt A6NND4)
T1 construct: OR2AT4, endogenous, HaCaT cells, calcium; endogenous in cells; host or cells: HaCaT cells
T1 sequence (A6NND4 1-320): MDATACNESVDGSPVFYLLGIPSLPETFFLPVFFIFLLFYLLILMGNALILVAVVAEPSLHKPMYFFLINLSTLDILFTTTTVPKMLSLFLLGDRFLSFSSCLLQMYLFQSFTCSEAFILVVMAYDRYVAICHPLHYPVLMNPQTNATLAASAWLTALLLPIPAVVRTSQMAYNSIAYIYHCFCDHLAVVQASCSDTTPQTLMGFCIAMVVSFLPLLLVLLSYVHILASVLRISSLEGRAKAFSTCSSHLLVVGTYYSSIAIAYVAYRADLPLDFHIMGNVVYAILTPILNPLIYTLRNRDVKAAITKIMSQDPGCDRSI
Test: Calcium imaging, dose-dependent activation of HaCaT cells by Sandalore, fourth application (FIG. 9D)
Format: cell-based
Settings: HaCaT keratinocytes, endogenous OR2AT4, intracellular calcium signal amplitude, 0.0125-10 mM
Description: A method established at the Department of Cell Physiology of Ruhr University Bochum for deorphanization studies is calcium imaging, in which activation of an OR by an odorant is visualized by a change in the intracellular calcium concentration of transfected cells using a fluorescent dye [cf. Wetzel et al. in: J. Neurosci. 19, pp. 7426-7433 (1999); Spehr et al. in: Science 299, pp. 2054-2058 (2003); Neuhaus et al. in: J. Biol. Chem. 284, pp. 16218-16225 (2009)]. In this method, the Hana3A cells are briefly (20 s) stimulated with an odorant and selected for odorant screenings of high concentrations (up to 1 mM) in order to confirm activation of ORs weakly expressed in Hana3A cells.
For detection of OR2AT4 at the transcript level, RNA of various skin cell types and skin biopsy specimens was isolated, and RT-PCR was carried out. Transcripts of OR2AT4 were detected in human primary keratinocytes of various differentiation stages, HaCaT cells, and human skin biopsy specimens (full thickness skin) (FIG. 6). […] In contrast, no expression of the receptor was detected in adipocytes or fibroblasts (FIG. 6, center). […]
Effect of the OR2AT4 ligand Sandalore® on intracellular calcium concentration of cultivated keratinocytes. […] Right: Quantitative evaluation of calcium signals in 4-time application of Sandalore® (500 μM). […]

CC1=CCC(CCC(C)C(C)O)C1(C)C (stereo not shown) [Sandalore]
EC50: 110 µM

From patent US10835500B2, “Medicament for accelerated wound healing” (Symrise AG, priority 2014, dated 2020)
